This is an account of results in ChEMBL document CHEMBL1139094, “The synthesis and structure-activity relationship studies of selective acetyl-CoA carboxylase inhibitors containing 4-(thiazol-5-yl)but-3-yn-2-amino motif: polar region modifications” (Bioorg Med Chem Lett, 2007).

What is called IC50 is the concentration needed to halve the response being measured. Low readings indicate higher potency, high ones lower potency.

The target in one assay is Acetyl-CoA carboxylase 1 (Homo sapiens, UniProt Q13085). Description: Inhibition of ACC1.
The target in the next assay is Acetyl-CoA carboxylase 2 (Homo sapiens, UniProt O00763). The experiment in a line: Inhibition of ACC2.
Chain of Acetyl-CoA carboxylase 2 (O00763 whole entry): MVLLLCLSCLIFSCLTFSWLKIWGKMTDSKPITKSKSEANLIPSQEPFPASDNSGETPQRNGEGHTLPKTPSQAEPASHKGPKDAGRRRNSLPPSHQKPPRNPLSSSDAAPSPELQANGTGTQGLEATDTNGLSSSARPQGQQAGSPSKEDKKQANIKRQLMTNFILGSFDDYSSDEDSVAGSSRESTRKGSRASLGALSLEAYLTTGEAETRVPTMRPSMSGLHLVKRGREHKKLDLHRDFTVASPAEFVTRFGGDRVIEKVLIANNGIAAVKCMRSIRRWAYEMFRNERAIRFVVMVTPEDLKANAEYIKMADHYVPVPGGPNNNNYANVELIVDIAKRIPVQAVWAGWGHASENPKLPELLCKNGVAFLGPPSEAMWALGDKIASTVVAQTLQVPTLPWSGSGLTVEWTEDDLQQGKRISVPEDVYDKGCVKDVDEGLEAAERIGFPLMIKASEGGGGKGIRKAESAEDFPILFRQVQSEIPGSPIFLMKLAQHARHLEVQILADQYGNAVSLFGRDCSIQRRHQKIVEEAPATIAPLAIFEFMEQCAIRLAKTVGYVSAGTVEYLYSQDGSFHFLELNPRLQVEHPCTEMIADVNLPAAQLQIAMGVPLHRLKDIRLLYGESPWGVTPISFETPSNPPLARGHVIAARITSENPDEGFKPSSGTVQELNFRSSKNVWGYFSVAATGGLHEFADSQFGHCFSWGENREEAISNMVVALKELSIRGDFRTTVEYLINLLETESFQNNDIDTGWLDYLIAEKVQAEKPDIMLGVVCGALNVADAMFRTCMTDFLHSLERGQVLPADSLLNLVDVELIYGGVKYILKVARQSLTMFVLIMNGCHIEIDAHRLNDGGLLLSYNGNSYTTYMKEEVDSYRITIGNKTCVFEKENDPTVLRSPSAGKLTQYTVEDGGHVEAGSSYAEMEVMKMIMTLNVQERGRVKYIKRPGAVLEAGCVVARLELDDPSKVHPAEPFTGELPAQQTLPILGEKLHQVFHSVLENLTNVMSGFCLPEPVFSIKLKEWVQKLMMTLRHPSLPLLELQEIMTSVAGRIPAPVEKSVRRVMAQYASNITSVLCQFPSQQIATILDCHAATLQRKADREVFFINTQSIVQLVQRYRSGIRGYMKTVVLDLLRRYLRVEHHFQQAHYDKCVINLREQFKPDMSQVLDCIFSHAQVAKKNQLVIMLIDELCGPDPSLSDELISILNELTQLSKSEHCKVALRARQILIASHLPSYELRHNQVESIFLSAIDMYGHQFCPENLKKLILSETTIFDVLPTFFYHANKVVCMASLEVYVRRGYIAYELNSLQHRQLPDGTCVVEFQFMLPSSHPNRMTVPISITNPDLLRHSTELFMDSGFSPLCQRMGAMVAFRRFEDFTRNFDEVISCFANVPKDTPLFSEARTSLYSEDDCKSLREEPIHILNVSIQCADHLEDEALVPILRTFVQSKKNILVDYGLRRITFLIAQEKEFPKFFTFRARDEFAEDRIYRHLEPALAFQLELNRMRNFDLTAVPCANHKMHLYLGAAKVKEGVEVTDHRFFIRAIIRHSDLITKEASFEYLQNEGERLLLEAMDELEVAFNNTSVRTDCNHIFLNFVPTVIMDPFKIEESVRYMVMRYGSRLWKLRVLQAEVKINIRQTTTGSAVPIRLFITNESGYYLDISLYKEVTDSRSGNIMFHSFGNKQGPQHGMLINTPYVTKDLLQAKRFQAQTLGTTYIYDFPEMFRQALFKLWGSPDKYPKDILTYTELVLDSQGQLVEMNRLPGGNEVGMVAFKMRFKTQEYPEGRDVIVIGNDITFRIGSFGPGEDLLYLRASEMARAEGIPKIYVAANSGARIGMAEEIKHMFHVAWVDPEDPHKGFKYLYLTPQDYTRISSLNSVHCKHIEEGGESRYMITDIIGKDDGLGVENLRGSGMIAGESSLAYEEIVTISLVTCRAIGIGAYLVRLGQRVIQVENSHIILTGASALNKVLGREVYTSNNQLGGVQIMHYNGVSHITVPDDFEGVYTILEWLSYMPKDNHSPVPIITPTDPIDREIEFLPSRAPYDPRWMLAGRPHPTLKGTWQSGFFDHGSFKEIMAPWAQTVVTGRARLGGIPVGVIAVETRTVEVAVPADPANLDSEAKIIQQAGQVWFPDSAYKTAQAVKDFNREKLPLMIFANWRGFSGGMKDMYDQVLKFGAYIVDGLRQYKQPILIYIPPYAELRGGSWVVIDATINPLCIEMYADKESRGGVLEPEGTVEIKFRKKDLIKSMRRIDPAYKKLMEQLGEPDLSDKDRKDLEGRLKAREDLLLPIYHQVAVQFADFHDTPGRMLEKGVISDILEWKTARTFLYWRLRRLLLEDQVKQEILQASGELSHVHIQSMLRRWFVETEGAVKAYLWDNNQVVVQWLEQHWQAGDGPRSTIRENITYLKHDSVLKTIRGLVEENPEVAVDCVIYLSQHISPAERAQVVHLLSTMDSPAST
For a further assay, the species on record is Homo sapiens. The experiment in a line: Selectivity for human ACC2 over ACC1.

For the compound `CC(C#Cc1cnc(Oc2ccc(Oc3ccccc3)cc2)s1)Nc1nc2ccccc2s1` (stereo not drawn), the IC50 at Acetyl-CoA carboxylase 1 and against Acetyl-CoA carboxylase 2 was over 30000 nM throughout.
Take `CC(C#Cc1cnc(Oc2ccc(OC(C)C)cc2)s1)NC(=O)NCC(N)=O` (stereo not drawn): the IC50 against Acetyl-CoA carboxylase 1 was over 30000 nM; against Acetyl-CoA carboxylase 2, 920 nM.
For `Cc1cc(NC(C)C#Cc2cnc(Oc3ccc(Oc4ccccc4)cc3)s2)on1` (stereo not drawn) the same measures were over 30000 nM and 57 nM.
For `Cc1cc(NC(C)C#Cc2cnc(Oc3ccc(Oc4ccccc4)cc3)s2)no1` (stereo not drawn) the same measures were over 30000 nM and 83 nM.
At Acetyl-CoA carboxylase 2, `CNC(=O)NC(C)C#Cc1cnc(Oc2ccc(OC(C)C)cc2)s1` (stereo not drawn) displayed an IC50 of 32 nM. This lies in the double-digit nanomolar range.
Regarding `CC(C#Cc1cnc(Oc2ccc(OC(C)C)cc2)s1)NC(=O)ON` (stereo not drawn), the values for the IC50 against Acetyl-CoA carboxylase 1 and at Acetyl-CoA carboxylase 2 were over 30000 nM and 680 nM, respectively.
`CC(=O)NC(C#Cc1cnc(Oc2ccc(OC(C)C)cc2)s1)C1CC1` (stereo not drawn) yielded an IC50 at Acetyl-CoA carboxylase 2 of 880 nM.
On the same count and under the same terms, next, `CC(=O)NCC#Cc1cnc(Oc2ccc(OC(C)C)cc2)s1`: 1860 nM.
Turning to `CC(C#Cc1cnc(Oc2ccc(OC(C)C)cc2)s1)NC(=O)N(C)C` (stereo not drawn), the IC50 was over 30000 nM against Acetyl-CoA carboxylase 1 and 71 nM on Acetyl-CoA carboxylase 2.
For `CC(=O)NC(C)(C)C#Cc1cnc(Oc2ccc(OC(C)C)cc2)s1` the same measures were over 30000 nM and 500 nM.
For `CCC(C#Cc1cnc(Oc2ccc(OC(C)C)cc2)s1)NC(C)=O` (stereo not drawn) the same measures were over 30000 nM and 530 nM.
In the case of `CC(C#Cc1cnc(Oc2ccc(OC(C)C)cc2)s1)NC(=O)C1CCCC1` (stereo not drawn), the figures for the IC50 on Acetyl-CoA carboxylase 1 and at Acetyl-CoA carboxylase 2 were over 30000 nM and 570 nM, respectively.
For `CC(C#Cc1cnc(Oc2ccc(OC(C)C)cc2)s1)NC(=O)C(=O)O` (stereo not drawn), the IC50 at Acetyl-CoA carboxylase 1 and against Acetyl-CoA carboxylase 2 was over 30000 nM each time.
As to `COC(=O)C(=O)NC(C)C#Cc1cnc(Oc2ccc(OC(C)C)cc2)s1` (stereo not drawn), the concentration for half-maximal inhibition (IC50) on Acetyl-CoA carboxylase 1 is over 30000 nM; against Acetyl-CoA carboxylase 2, 850 nM.
For `Cc1noc(NC(C)C#Cc2cnc(Oc3ccc(Oc4ccccc4)cc3)s2)c1C` (stereo not drawn) the same measures were over 30000 nM and 38 nM.
For `CC(=O)NC(C#Cc1cnc(Oc2ccc(OC(C)C)cc2)s1)c1ccccc1` (stereo not drawn) the same measures were over 30000 nM and over 30000 nM.
On to `CC(C#Cc1cnc(Oc2ccc(OC(C)C)cc2)s1)NC(N)=O` (stereo not drawn), for which the half-maximal inhibitory concentration (IC50) against Acetyl-CoA carboxylase 1 was over 30000 nM; against Acetyl-CoA carboxylase 2 it was 37 nM.
For `CC(C#Cc1cnc(Oc2ccc(Oc3ccccc3)cc2)s1)Nc1ccon1` (stereo not drawn) the same measures were 5020 nM and 42 nM.
`CC(C#Cc1cnc(Oc2ccc(Oc3ccccc3)cc2)s1)N(O)C(N)=O` (stereo not drawn) had an IC50 on Acetyl-CoA carboxylase 2 of 75 nM. Further, the Ratio IC50 in the assay listed under Homo sapiens was over 1000.
With `CC(C)CONC(=O)NC(C)C#Cc1cnc(Oc2ccc(OC(C)C)cc2)s1` (stereo not drawn), the IC50 against Acetyl-CoA carboxylase 1 is over 30000 nM; against Acetyl-CoA carboxylase 2, 20500 nM.
For `CC(C#Cc1cnc(Oc2ccc(OC(C)C)cc2)s1)NC(=O)N1CCOCC1` (stereo not drawn) the same measures were over 30000 nM and 670 nM.
For `CC(C#Cc1cnc(Oc2ccc(Oc3ccccc3)cc2)s1)Nc1nccs1` (stereo not drawn) the same measures were 10700 nM and 690 nM.
For `CC(C#Cc1cnc(Oc2ccc(OC(C)C)cc2)s1)NC(=O)[C@@H]1CCCN1` (stereo partly drawn) the same measures were over 30000 nM and over 30000 nM.
As for `CC(C#Cc1cnc(Oc2ccc(Oc3ccccc3)cc2)s1)Nc1ncc[nH]1` (stereo not drawn), the IC50 against Acetyl-CoA carboxylase 1 is over 30000 nM; on Acetyl-CoA carboxylase 2, 3980 nM.
For `CC(=O)NC(C#Cc1cnc(Oc2ccc(OC(C)C)cc2)s1)CO` (stereo not drawn) the same measures were over 30000 nM and 910 nM.
Turning to `CCn1ccc(NC(C)C#Cc2cnc(Oc3ccc(Oc4ccccc4)cc3)s2)n1` (stereo not drawn), the IC50 against Acetyl-CoA carboxylase 1 was over 30000 nM; against Acetyl-CoA carboxylase 2 it was 440 nM.
For `CC(C#Cc1cnc(Oc2ccc(OC(C)C)cc2)s1)NC(=O)NO` (stereo not drawn) the same measures were over 30000 nM and 330 nM.
As to `CC(C#Cc1cnc(Oc2ccc(OC(C)C)cc2)s1)NC(=O)C1CCOC1` (stereo not drawn), the IC50 is over 30000 nM at Acetyl-CoA carboxylase 1 and 220 nM against Acetyl-CoA carboxylase 2.
